Source: patent US20030176470A1, “Topical composition containing at least one aryl oxime, and method for the preparation thereof” (priority 2000, published 2003)

Experiments:
[1] = stability of ethanolic solutions of the active agent; assay type: physicochemical
Description: During investigations regarding the solubility of, in particular, 2-hydroxy-5-methyl-laurophenone oxime, solutions could be prepared which are stable after 4 days at room temperature under the exclusion of UV light. These solutions were ethanolic solutions of the active agent which included further components such as 0.8/1.0 and 2.0% PEG600 or PEG6000. The active agent was present in these solutions in an amount of 10 wt. %. […] These solutions can be incorporated into water in order to prepare topical formulations.

[2] = solubility in different solvents; assay type: physicochemical; conditions: in solvents such as isopropanol, acetone, chloroform, 2-phenylethanol and Triton-X100
Protocol: Numerous studies were conducted in order to obtain optimum compositions of the active agent in which an improvement of solubility and, a prevention of the formation of crystals is achieved. […] Therefore, the carriers must be non-toxic, non-carcinogenic and skin compatible and, furthermore, should be odour neutral. Moreover, these carriers, e.g. solvents or emulsifiers, should be compatible with the major part of the topical composition, i.e. an aqueous phase or an oil phase, and should not form a separate phase or lead to the precipitation of the active agent.

For 2-hydroxy-5-methyl-laurophenone oxime, the formation of crystals ([1]; ethanolic PEG solutions, amount of active agent increased above 10 wt. %) was “formation of crystals was observed”, the stability of solution ([1]; ethanolic solutions with 0.8/1.0 and 2.0% PEG600 or PEG6000, active agent 10 wt. %, 4 days at room temperature under exclusion of UV light) was “stable” and the formation of crystals ([1]; solution of the active agent incorporated into water at 10 to 20 wt. % of the formulation) was “in some cases the formation of crystals”. For the same substance, the solubility [2] was “good solubility”.
